For the experiment, the target named is T1, PI3Kδ (PI3 Kd) (Homo sapiens, UniProt O00329).
T1 construct: purchased Millipore
As to the kind of experiment: PI3K HTRF enzymatic inhibition assay (cell-free), PI3Kd. The experiment is classed as biochemical. The protocol:
PI3K α, β, δ and γ Enzymatic Inhibition Assays
Compounds were screened for their ability to inhibit PI3Kα (PI3Kα), PI3Kβ (PI3 Kb), PI3Kδ (PI3 Kd) and PI3Kγ (PI3 Kg) using a cell-free based PI3K HTRF™ assay (Millipore, ref. #33-017) All reagents to perform the reactions were prepared according to the manufacturer protocol. All PI3K enzymes were recombinant and were purchased at Millipore.
These concentrations were final in the assay. • 3) A reservoir plate containing Adenosine TriPhosphate (ATP) diluted in the Millipore kit buffer was prepared for each isoform. […] Incubation was done for 8 minutes (for all four isoforms) then the reaction was stopped by addition of the Stop solution. The Detection solution was added. These solutions were prepared previously according to the kit specifications.

Structures are written as SMILES. Like-named read-outs stand apart in the source and are kept apart here.

As a reminder, the IC50 is the concentration that gives 50% inhibition.

T1 sequence (O00329 whole entry): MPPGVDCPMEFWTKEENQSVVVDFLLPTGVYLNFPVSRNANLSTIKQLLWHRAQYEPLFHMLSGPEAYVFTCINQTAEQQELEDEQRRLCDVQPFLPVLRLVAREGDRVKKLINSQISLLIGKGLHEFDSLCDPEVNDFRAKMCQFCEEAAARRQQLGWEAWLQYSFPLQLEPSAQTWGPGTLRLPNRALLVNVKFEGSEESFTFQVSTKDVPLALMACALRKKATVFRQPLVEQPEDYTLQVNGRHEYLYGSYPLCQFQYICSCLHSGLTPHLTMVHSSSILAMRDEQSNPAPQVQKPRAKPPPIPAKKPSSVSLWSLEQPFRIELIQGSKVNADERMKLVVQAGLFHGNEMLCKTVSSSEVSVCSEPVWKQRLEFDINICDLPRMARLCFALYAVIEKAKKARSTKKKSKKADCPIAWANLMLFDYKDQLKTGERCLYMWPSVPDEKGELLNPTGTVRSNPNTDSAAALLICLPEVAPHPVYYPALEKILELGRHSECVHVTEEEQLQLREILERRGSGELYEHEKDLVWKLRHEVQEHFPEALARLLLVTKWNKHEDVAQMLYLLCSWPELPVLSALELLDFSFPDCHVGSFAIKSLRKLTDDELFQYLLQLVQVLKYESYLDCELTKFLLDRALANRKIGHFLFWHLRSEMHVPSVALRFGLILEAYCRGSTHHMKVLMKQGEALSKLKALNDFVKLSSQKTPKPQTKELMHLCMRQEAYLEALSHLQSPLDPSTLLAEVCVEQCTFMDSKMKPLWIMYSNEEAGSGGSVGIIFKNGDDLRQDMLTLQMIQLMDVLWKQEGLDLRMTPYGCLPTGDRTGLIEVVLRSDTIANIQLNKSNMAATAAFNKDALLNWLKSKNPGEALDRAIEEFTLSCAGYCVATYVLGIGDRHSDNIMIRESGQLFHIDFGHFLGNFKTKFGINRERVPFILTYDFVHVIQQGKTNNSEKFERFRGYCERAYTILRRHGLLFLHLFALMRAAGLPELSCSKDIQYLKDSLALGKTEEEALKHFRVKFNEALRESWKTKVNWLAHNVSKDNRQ
T1 sequence (P27986 whole entry partner): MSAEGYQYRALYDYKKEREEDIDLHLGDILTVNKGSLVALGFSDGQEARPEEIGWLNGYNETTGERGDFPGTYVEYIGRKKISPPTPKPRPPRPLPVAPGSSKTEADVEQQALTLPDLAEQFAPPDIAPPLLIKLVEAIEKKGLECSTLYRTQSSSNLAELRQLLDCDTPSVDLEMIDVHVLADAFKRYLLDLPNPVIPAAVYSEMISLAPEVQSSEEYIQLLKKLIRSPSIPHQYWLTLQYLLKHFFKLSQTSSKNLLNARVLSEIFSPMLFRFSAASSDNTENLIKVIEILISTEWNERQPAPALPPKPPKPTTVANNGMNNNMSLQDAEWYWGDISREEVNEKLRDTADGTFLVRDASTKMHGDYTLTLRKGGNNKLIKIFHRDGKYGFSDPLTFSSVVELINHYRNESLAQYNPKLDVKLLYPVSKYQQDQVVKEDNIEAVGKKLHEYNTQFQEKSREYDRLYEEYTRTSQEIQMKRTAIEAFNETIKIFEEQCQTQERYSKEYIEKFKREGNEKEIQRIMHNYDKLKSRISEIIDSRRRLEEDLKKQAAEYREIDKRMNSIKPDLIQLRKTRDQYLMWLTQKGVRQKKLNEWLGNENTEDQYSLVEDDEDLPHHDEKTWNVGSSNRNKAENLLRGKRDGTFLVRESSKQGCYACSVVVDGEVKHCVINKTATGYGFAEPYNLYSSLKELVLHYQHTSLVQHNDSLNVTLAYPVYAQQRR

Turning to `C[C@H](Nc1ncnc(N)c1C#N)c1nn2cc(F)cc2c(=O)n1-c1ccccc1` [Example 75, (S)-4-Amino-6-(1-(6-fluoro-4-oxo-3-phenyl-3,4-dihydropyrrolo[1,2-f][1,2,4]triazin-2-yl)ethylamino)pyrimidine-5-carbonitrile], the IC50 was 17 nM.

For the compound `N#Cc1c(N)ncnc1N1CC(F)(F)C[C@H]1c1nn2cccc2c(=O)n1-c1ccccc1` [Example 73, (S)-4-Amino-6-(4,4-difluoro-2-(4-oxo-3-phenyl-3,4-dihydropyrrolo[1,2-f][1,2,4]triazin-2-yl)pyrrolidin-1-yl)pyrimidine-5-carbonitrile], half-maximal inhibition (IC50) was put at 31 nM.

The compound `C[C@H](Nc1ncnc(N)c1C#N)c1nn2ccc(C#N)c2c(=O)n1-c1cc(Cl)cc(Cl)c1` [Example 104, (S)-2-(1-(6-Amino-5-cyanopyrimidin-4-ylamino)ethyl)-3-(3,5-dichlorophenyl)-4-oxo-3,4-dihydropyrrolo[1,2-f][1,2,4]triazine-5-carbonitrile] showed a concentration for half-maximal inhibition (IC50) of 36 nM.

`C[C@H](Nc1ncnc(N)c1C#N)c1nn2cccc2c(=O)n1-c1cccc(O)c1` [Example 179] came in with an IC50 of 7 nM.

On to `CCCNC(=O)c1ccn2nc([C@H](C)Nc3ncnc(N)c3C#N)n(-c3ccccc3)c(=O)c12` [Example 152, (S)-2-(1-(6-Amino-5-cyanopyrimidin-4-ylamino)ethyl)-4-oxo-3-phenyl-N-propyl-3,4-dihydropyrrolo[1,2-f][1,2,4]triazine-5-carboxamide], for which the midpoint of inhibition, the IC50, lay at 747 nM.

`O=c1c2cccn2nc([C@@H]2CCCN2c2ncnc3[nH]cnc23)n1-c1ccccc1` [Example 44, (S)-2-(1-(9H-Purin-6-yl)pyrrolidin-2-yl)-3-phenylpyrrolo[1,2-f][1,2,4]triazin-4(3H)-one] displayed an IC50 of 29 nM.

`C[C@H](Nc1ncnc(N)c1C#N)c1nn2ccc(Br)c2c(=O)n1-c1ccccc1` [Example 144, (S)-4-Amino-6-(1-(5-bromo-4-oxo-3-phenyl-3,4-dihydropyrrolo[1,2-f][1,2,4]triazin-2-yl)ethylamino)pyrimidine-5-carbonitrile] gave an IC50 of 1 nM.

In turn, `C[C@H](Nc1nc(N)nc2[nH]cnc12)c1nn2cccc2c(=O)n1-c1ccccc1` [Example 21, (S)-2-(1-(2-Amino-9H-purin-6-ylamino)ethyl)-3-phenylpyrrolo[1,2-f][1,2,4]triazin-4(3H)-one] gave an IC50 of 5 nM.

As for `C[C@H](Nc1ncnc(N)c1C#N)c1nn2cccc2c(=O)n1C1CCC1` [Example 138, (S)-4-Amino-6-(1-(3-cyclobutyl-4-oxo-3,4-dihydropyrrolo[1,2-f][1,2,4]triazin-2-yl)ethylamino)pyrimidine-5-carbonitrile], half-maximal inhibition (IC50) required 8 nM.

In turn, `N#Cc1c(N)ncnc1N[C@@H](CO)c1nn2cccc2c(=O)n1-c1cc(F)cc(F)c1` [Example 157, (R)-4-Amino-6-(1-(3-(3,5-difluorophenyl)-4-oxo-3,4-dihydropyrrolo[1,2-f][1,2,4]triazin-2-yl)-2-hydroxyethylamino)pyrimidine-5-carbonitrile] gave an IC50 of 66 nM.

Consider `Cc1ccccc1-n1c(CSc2ncnc3[nH]cnc23)nn2ccc(C)c2c1=O` [Example 11, 2-((9H-Purin-6-ylthio)methyl)-5-methyl-3-o-tolylpyrrolo[1,2-f][1,2,4]triazin-4(3H)-one], for which the IC50 (recombinant PI3 Kd 0.60 nM, PIP2 2 μM, ATP 20 μM, 8 min incubation) is 119 nM.

Take `C[C@H](Nc1ncnc(N)c1C#N)c1nn2ccc(C(F)F)c2c(=O)n1-c1ccccc1` [Example 47, (S)-4-Amino-6-(1-(5-(difluoromethyl)-4-oxo-3-phenyl-3,4-dihydropyrrolo[1,2-f][1,2,4]triazin-2-yl)ethylamino)pyrimidine-5-carbonitrile]: the IC50 worked out at 1 nM.

Turning to `C[C@H](Nc1ncnc(N)c1F)c1nn2ccc(C(F)F)c2c(=O)n1-c1cc(F)cc(F)c1` [Example 102, (S)-2-(1-(6-Amino-5-fluoropyrimidin-4-ylamino)ethyl)-5-(difluoromethyl)-3-(3,5-difluorophenyl)pyrrolo[1,2-f][1,2,4]triazin-4(3H)-one], half-maximal inhibition (IC50) required 42 nM.

(Values after patent publication US9340547B2, “Pyrrolotriazinone derivatives as inhibitors P13K” (Almirall, S.A., priority 2011, dated 2016).)
